Legend:
[1] = test system: differentiated U937 cells; assay: LPS-induced TNFα release in differentiated U937 cells; type: cell-based; conditions: Homo sapiens, U-937, read-out: IC50 Values LPS-induced TNFα release d-U937 cells
Protocol: (§1) U937 cells, human monocytic cell line, were differentiated to macrophage-type cells by incubation with phorbol myristate acetate (PMA; 100 ng/ml) for 48 to 72 hr. Where appropriate, cells were pre-incubated with final concentrations of compound for 2 hr. Cells were then stimulated with 0.1 μg/ml of LPS (from E. Coli: O111:B4, Sigma) for 4 hr, and the supernatant collected for determination of TNFα concentration by sandwich ELISA (Duo-set, R&D systems). […] THP-1, human monocytic cell line, was also used for this assay. THP-1 cells were stimulated with 3 μg/ml of LPS (from E. Coli: O111:B4, Sigma) for 4 hr, and the supernatant collected for determination of TNFα concentration.

THP-1 cells = assay: LPS-induced TNFα release in THP-1 cells; type: cell-based; conditions: Homo sapiens, read-out: IC50 Values LPS-induced TNFα release THP1 cells
Protocol: as §1

[2] = test system: differentiated U937 cells; assay: LPS-induced IL-8 release in differentiated U937 cells; type: cell-based, human
Protocol: U937 cells, human monocytic cell line, were differentiated to macrophage-type cells by incubation with phorbol myristate acetate (PMA; 100 ng/ml) for 48 to 72 hours. Cells were pre-incubated with final concentrations of compound for 2 hrs. Cells were then stimulated with 0.1 μg/ml of LPS (from E. Coli: O111:B4, Sigma) for 4 hrs, and the supernatant collected for determination of the IL-8 concentration by sandwich ELISA (Duo-set, R&D systems).

BEAS2B cells [3] = assay: Poly I:C-induced ICAM-1 induction in BEAS2B cells; type: cell-based, human; conditions: at 10 ug/ml
Protocol: Poly I:C (1 ug/ml) (Invivogen Ltd., San Diego, Calif.) was transfected into BEAS2B cells (human bronchial epithelial cells, ATCC) with Oligofectamine (Invitrogen, Carlsbad, Calif.). Cells were pre-incubated with final concentrations of compound for 2 hrs. The level of ICAM1 expression on the cell surface was determined by cell-based ELISA. Briefly, at 18 hrs after poly I:C transfection, cells were fixed with 4% formaldehyde in PBS. After quenching endogenous peroxidase by adding 0.1% sodium azide and 1% hydrogen peroxide, cells were washed with wash-buffer (0.1% Tween in PBS: PBS-Tween). After blocking the wells with 5% milk in PBS-Tween for 1 hr, the cells were incubated with anti-human ICAM-1 antibody (Cell Signaling Technology, Danvers, Mass.) in 1% BSA PBS overnight at 4° C. Cells were washed with PBS-Tween and incubated with the secondary antibody (HRP-conjugated anti-rabbit IgG, Dako Ltd., Glostrup, Denmark).

sputum macrophages = assay: Sputum macrophage assay (LPS-induced IL-8 release); type: cell-based, human
BEAS2B cells [4] = assay: Rhinovirus-induced ICAM-1 expression in BEAS2B cells; type: cell-based, human
BEAS2B cells [5] = assay: Rhinovirus-induced IL-8 release in BEAS2B cells; type: cell-based, human
[6] = test system: Human rhinovirus RV16 (HRV); assay: Rhinovirus-titre assay in MRC5 cells; type: cell-based; conditions: concentration range up to 1.9 μM
Protocol: All titrations were performed by infecting confluent Hela cell monolayers with serially diluted supernantant (10^−1 to 10^−5) and assessing cytopathetic effect by MTT assay 4 days after infection. The amount of virus required to infect 50% of Hela cells was calculated in each treatment as TCID50 U/mL. Compounds were added 24 and 2 hr before HRV infection and 1 hr after infection when non-infected HRV was washed out.

[7] = test system: neutrophil and macrophage accumulation into airways; assay: Cigarette smoke model; type: in vivo, A/J mice; parameters: dose or concentration left out as unconfirmed; conditions: (35 μl, bid, in)
Protocol: A/J mice (males, 5 weeks old) were exposed to cigarette smoke (4% cigarette smoke, diluted with compressed air) for 30 min/day for 11 days using a Tobacco Smoke Inhalation Experiment System for small animals (Model SIS-CS; Sibata Scientific Technology, Tokyo, Japan). Test substances were given intra-nasally (35 μl of solution in 50% DMSO/PBS) and therapeutically twice daily for 3 days after the final cigarette smoke exposure. Twelve hours after the last dosing, animals were anesthetized, the trachea cannulated and bronchoalveolar lavage fluid (BALF) was collected. The numbers of alveolar macrophages and neutrophils were determined by FACS analysis (EPICS® ALTRA II, Beckman Coulter, Inc., Fullerton, Calif., USA) using anti-mouse MOMA2 antibody (macrophage) or anti-mouse 7/4 antibody (neutrophil).

[8] = test system: bronchoconstrictor response to ovalbumin challenge (sGaw); assay: Ovalbumin challenge/parainfluenza infection model; type: in vivo, guinea-pigs; conditions: 1.5 mg per day nebulised, sensitized animals treated with PIV3 medium (initial studies)

| Compound | IC50 [1] [nM] | IC50 (THP-1 cells) [nM] | maximum inhibition of LPS-induced IL-8 release in differentiated U937 cells [2] [%] | effect on poly I:C induced ICAM1 expression in BEAS2B cells (BEAS2B cells [3]) | IC50 Values Sputum macrophages LPS-induced IL-8 release (sputum macrophages) | IC50 Values BEAS2B cells Rhinovirus-induced ICAM expression (BEAS2B cells [4]) | IC50 Values BEAS2B cells Rhinovirus-induced IL-8 release (BEAS2B cells [5]) | effect on viral replication [6] | macrophage accumulation into airways [7] | neutrophil accumulation into airways [7] | ovalbumin-mediated lung function changes [8] |
| --- | --- | --- | --- | --- | --- | --- | --- | --- | --- | --- | --- |
| Cc1ccc(-n2nc(C(C)(C)C)cc2NC(=O)Nc2ccc(OCCN3CCOCC3)c3ccccc23)cc1 [BIRB796] | 20 | 12 | 31 | no effect | NSE @ 19 μM | NSE @ 1.9 μM | NSE @ 1.9 μM | without effect | – | – | – |
| CCC(=O)O[C@]1(C(=O)SCF)[C@H](C)C[C@H]2[C@@H]3C[C@H](F)C4=CC(=O)C=C[C@]4(C)[C@@]3(F)[C@@H](O)C[C@@]21C [fluticasone propionate] | – | – | – | – | – | – | – | – | did not inhibit | did not inhibit | inhibited |
